This note sets out measurements from ChEMBL document CHEMBL3507680, “University of Dundee, Gates Library screen for HepG2 cell viability”.

The nature of the data set: Human HepG2 cell viability assay in 384 well format. The format is toxicity, cell-based. Also noted: dose 125 nL, time 70.5 hour; cytotoxicity at 70.5 h: concentration not given beside the values. To be noted: HepG2 cells, read-out: Inhibition.

Take `CN1C(=O)CO[C@H]2CN(C(=O)c3ccc4c(c3)CCCC4)C[C@@H]21`: the cytotoxicity at 70.5 h turned out to be 8.95%. Regarding `Nc1nc(N)c2c(n1)OC1(CCCN(Cc3nccs3)CC1)C2` (stereo not drawn), the cytotoxicity at 70.5 h was -9.72%. With `CC(=O)N1CCCCC[C@@H]2[C@@H]1[C@H](c1cccc(F)c1)CN2C(C)=O` the figure was -10.6%; with `CC(=O)N1CCCCC[C@@H]2[C@@H]1[C@H](c1cccc(F)c1)CN2C(=O)C1CC1`, -3.31%. Take `CC(C)n1nnc(CC(=O)NCC2(c3ccccc3F)CCOCC2)n1`: the cytotoxicity at 70.5 h is -8.63%. Consider `Nc1c(C(=O)C2CCCN(C(=O)C3CC3)C2)cnn1-c1ccc(F)cc1` (stereo not drawn), for which the cytotoxicity at 70.5 h is -2.33%. The figure for `Cc1cc(C)nc(N2CCC(c3cc(CCO)[nH]n3)C2)n1` (stereo not drawn) is -12.4%; for `O=C1CN(C(=O)C2CN(c3ccc(F)cc3)CCO2)CCN1` (stereo not drawn) it is -7.29%; for `NCCC(=O)NCC1(O)CCCN(c2ccnc3cccnc23)C1` (stereo not drawn) it is -3.53%.

As to `CC(=O)N1CC(C(=O)NCCc2ncc(C)s2)C1`, the cytotoxicity at 70.5 h was -5.34%. With `c1ccc(Cc2cncc(C3CCCN3C3CCOCC3)n2)cc1` (stereo not drawn) the figure was -6.45%; with `Cc1cc(C)nc(N2CCC(Cn3cc(C(N)=O)cn3)CC2)n1`, -7.04%; with `CN1CCCCC1CC(=O)Nc1ccc2ncn(C)c2c1` (stereo not drawn), 13.5%. On to `Cc1cc(C(=O)N(C)C)nc(C2(C)CCCN2c2ccnc(C)n2)n1` (stereo not drawn), for which the cytotoxicity at 70.5 h was -6.87%.

Turning to `Cc1ccnc(C2CN(c3ccnc(C)n3)C2)n1`, the cytotoxicity at 70.5 h is -5.49%.

For `Cn1cc(CN2CCC(c3ccncc3)CC2)cn1`, the cytotoxicity at 70.5 h was -9.54%.

With `Cc1cc(C)nc(N2CCC(Cn3cc(C(=O)N(C)C)cn3)CC2)n1`, the cytotoxicity at 70.5 h is -3.57%. With `Cc1cc(NCC2CCCCC2)n2ncnc2n1` the figure was -2.65%. The figure for `NCCCC(=O)NCC1(O)CCCN(c2ccnc3cccnc23)C1` (stereo not drawn) is -4.51%; for `Cc1ncc(-c2ccncc2)c(C2CCCN(C(=O)c3ccno3)C2)n1` (stereo not drawn) it is 5.49%. On to `CS(=O)(=O)c1cncnc1C1CCCN(C(=O)Nc2ccc(F)cc2)C1` (stereo not drawn), for which the cytotoxicity at 70.5 h was -4.34%. The figure for `CS(=O)(=O)c1cncnc1C1CCCN(C(=O)Cc2ccccc2F)C1` (stereo not drawn) is -7.69%; for `Cc1nc(C2CCN(S(C)(=O)=O)CC2)nc(N2CCCC2)c1C` it is -3.13%. Regarding `O=C(c1cc(-c2cccnc2)[nH]n1)N1CCCC(c2cnccn2)C1` (stereo not drawn), the cytotoxicity at 70.5 h turned out to be 12%. The figure for `Cc1cccc(NC(=O)c2cnc(C3CCCNC3)cn2)n1` (stereo not drawn) is -2.31%; for `CN1CCCCC1c1cncc(N2CCC(O)CC2)n1` (stereo not drawn) it is -0.469%.

`COCC1CN(C(C)=O)CCN(c2cc(C)ncn2)C1` (stereo not drawn): the cytotoxicity at 70.5 h amounted to 10.4%. The figure for `CO[C@H]1C[C@@H]2CN(C(=O)c3cc4cccc(F)c4[nH]3)C[C@@H]2C1` is -6.67%; for `CN1CCC(CCc2ccnc(NC(=O)c3ccccn3)c2)CC1` it is 15.4%. For the molecule `CC(C)N1CCCCC1c1cc(CO)[nH]n1` (stereo not drawn), the cytotoxicity at 70.5 h was -3.81%. The figure for `CN1CCN(C(=O)CCCc2ccccc2)CC(O)(Cn2cccn2)C1` (stereo not drawn) is -2.15%; for `CC(C)n1nccc1C(=O)N1CCC(c2nnsc2S(C)(=O)=O)CC1` it is -6.33%; for `O=C(O)C1(Cc2cccc(-c3cccs3)c2)CCCNC1` (stereo not drawn) it is 14.3%.

For `CCn1ccnc1CN1CCN(c2cc(C)nc(C3CCCN3)c2)CC1` (stereo not drawn), the cytotoxicity at 70.5 h was -5.1%. With `Fc1ccc(-c2cnc(C3CCCN3)cn2)cc1` (stereo not drawn) the figure was -2.54%; with `Cn1cc([C@@H]2CN(S(=O)(=O)c3cccs3)C[C@H]2N)c2ccncc21`, 4.81%. With `Cn1cc([C@@H]2CN(S(=O)(=O)c3ccccc3F)C[C@H]2N)c2ccncc21` the figure was 19%. The figure for `c1cc(CN2CCC(c3ccc4c(c3)OCO4)CC2)ccn1` is -1.06%.
